Test results as given in patent US20240334932A1, “POLYMORPHS HAVING PESTICIDAL ACTIVITY” (CORTEVA AGRISCIENCE LLC, priority 2021, published 2024).

How the values were obtained:
[1] = Dissolution in hexane (anti-solvent); format: physicochemical
[2] = test system: adult sweet potato whitefly, B. tabaci; experiment: Knock-down study, treated glass vial bioassay, hexane anti-solvent experiment (Example 13B); format: in vivo; conditions: for Effect on B. tabaci behavior compared with the amorphous oil: hexane; for Trt Least Squares Means (proportion scale) Mean: proportion of insects above the 2 cm line: hexane anti-solvent suspension, repeated measures 15-180 min, GLMM
Protocol: In this study, the effect of Compound 1 on the behavior of adult sweet potato whitefly, B. tabaci was evaluated. In general, different forms of Compound 1 (either inventive Polymorph form A, inventive Polymorph form B, or non-crystalline Compound 1, amorphous oil) were applied to the inside of glass vials and adult B. tabaci were transferred into treated vials, exposing them to Compound 1 via contact with the treated glass surface. To quantify the knock-down effect reported previously (Lee et. al. 2013), a line was scribed 2 cm above the bottom of the treated vials and the number of B. tabaci above the 2 cm line were recorded the first three hours following initial exposure. […] This study characterized the effect of Compound 1, Polymorph A and Compound 1, Polymorph B on adult B. tabaci whitefly behavior using a common treated glass vial bioassay to expose the test insects through direct contact (Busvine 1971), and compared those effects in direct head-to-head comparison with non-cystalline Compound 1. Test compounds were either dissolved in acetone (Example 11A) or suspended in a volatile anti-solvent (hexane) (Example 11B), and then evenly coated on the inside of a glass vial using a laboratory-roller. In this experiment, three forms of Compound 1 (Polymorph form A, Polymorph form B, and non-crystalline, amorphous oil) were evaluated for their effect on B. tabaci behavior, polymorph A, polymorph B and an amorphous oil. The samples of Polymorph form A and Polymorph form B were finely milled as described in Example 12. The experimental design of the hexane experiment, including rates (25, 2.5, and 0.25 g/ha), replication (three replications per treatment), and preparation of the treatment suspension was similar to the process described for Example 13A. However, hexane was used instead of acetone. […] Following sonication, samples were again mixed using a vortex mixer immediately before transferring 151 μl of each stock suspension to 11.85 mL of hexane to create the treatment suspension for the 25 g/ha rate (resulting in 0.25 μg/cm^2). The 25 g/ha treatment suspension was serially diluted ten-fold, two times to generate treatment suspensions for the 2.5 and 0.25 g/ha rates. 3 mL of each treatment suspension was transferred into the 11-dram vials and the vials were placed on a laboratory tube roller and rotated at room temperature until the hexane had fully evaporated, leaving an even coating of Compound 1 particles on the inside of the vials. The solvent blank vials were treated with 3 mL of hexane. Following treatment, the vials were stored, infested with approximately 117.4, 47-219 (Mean, min-max) adult B. tabaci, and evaluated as described in the acetone experiment. For each trial and rate, the proportion of insects above the 2 cm line was analyzed with a generalized linear mixed model (GLMM) for repeated measures with binomial response and logit link function (Stroup, 2012). The use of the generalized linear model with binomial distribution for the response, instead of the linear model with normal distribution (ANOVA), allows the correct use of the distributional assumptions and actual sample size (number of insects) used in the experiments. The model included Treatment, Time point, and the interaction Treatment x Time point as fixed effects and the replicate (experimental unit) as random effect. The correlation between repeated measures was modeled with the compound symmetry covariance matrix. The generalized linear mixed models were estimated with the residual pseudo-likelihood method, and the means of the treatment proportions were compared with Tukey's tests (α=0.05) (Stroup 2012). Statistical analyses were performed with SAS Proc GLIMMIX (SAS Software, Version 9.4, SAS Institute Inc., Cary, NC).

[3] = Air milling of polymorphs, PXRD before and after (Example 12); format: physicochemical; conditions: Jet Mill to d(0.5)<6 μm and d(0.9)<15 μm
Protocol: Compound 1, Polymorph A and Compound 1, Polymorph B samples were air milled separately with Jet Mill until particle size of d (0.5)<6 μm and d (0.9)<15 μm. Powder X-Ray Diffraction (PXRD) was conducted on the samples before and after the air milling process.

[4] = test system: adult sweet potato whitefly, B. tabaci; experiment: Knock-down study, treated glass vial bioassay, acetone experiment (Example 13A); format: in vivo, B. tabaci (Middle East Asia Minor1 (MEAM1) biotype); conditions: for Trt Least Squares Means (proportion scale) Mean: proportion of insects above the 2 cm line: applied from acetone, repeated measures 15-180 min, GLMM; for Effect on B. tabaci behavior compared with the amorphous oil: acetone
Protocol: In this study, the effect of Compound 1 on the behavior of adult sweet potato whitefly, B. tabaci was evaluated. In general, different forms of Compound 1 (either inventive Polymorph form A, inventive Polymorph form B, or non-crystalline Compound 1, amorphous oil) were applied to the inside of glass vials and adult B. tabaci were transferred into treated vials, exposing them to Compound 1 via contact with the treated glass surface. To quantify the knock-down effect reported previously (Lee et. al. 2013), a line was scribed 2 cm above the bottom of the treated vials and the number of B. tabaci above the 2 cm line were recorded the first three hours following initial exposure.
This study characterized the effect of Compound 1, Polymorph A and Compound 1, Polymorph B on adult B. tabaci whitefly behavior using a common treated glass vial bioassay to expose the test insects through direct contact (Busvine 1971), and compared those effects in direct head-to-head comparison with non-cystalline Compound 1. Test compounds were either dissolved in acetone (Example 11A) or suspended in a volatile anti-solvent (hexane) (Example 11B), and then evenly coated on the inside of a glass vial using a laboratory-roller.
In this experiment, two forms of Compound 1 (polymorph form B and an amorphous oil) were evaluated for their effect on B. tabaci behavior. Three application rates were evaluated for each form of Compound 1 (25 g/ha, 2.5 g/ha,and 0.25 g/ha), in addition to a solvent blank control. Each treatment and the control were replicated three times. Compound 1 samples were dissolved in acetone and were coated on the inside of a 11-dram screw-top glass vial (Fisherbrand 03-339-21N) (Fisher Scientific, Hampton, NH). […] To treat the vials, a stock solution of each sample was first prepared by dissolving 1 mg of Compound 1 sample (either polymorph form B or an amorphous oil) in 2 ml of acetone. The stock solution was agitated using a laboratory vortex mixer to ensure complete mixture of the solution. 151 μL of each stock solution was added to 11.85 mL of acetone to create the treatment solution for the 25 g/ha rate (resulting in 0.25 μg/cm^2). The 25 g/ha treatment solution was serially diluted ten-fold, two times to generate treatment solutions for the 2.5 and 0.25 g/ha rates. 3 mL of each treatment solution was transferred into the 11-dram vials and the vials were placed on a laboratory tube roller and rotated at room temperature until the acetone had fully evaporated, leaving a coating of Compound 1 on the inside of the vials. The solvent blank vials were treated with 3 mL of acetone. After treatment, the vials were left open in a fume hood overnight at room temperature in preparation for testing the following day. Mixed-sex adult B. tabaci whiteflies (Middle East Asia Minor1 (MEAM1) biotype) were collected from a susceptible colony maintained at Corteva Agriscience (Indianapolis, IN). The adult B. tabaci were anesthetized with CO2 and approximately 66.5, 32-102 (Mean, min-max) were introduced into each of the treated vials and their behavior recorded. To evaluate B. tabaci behavior, a line was scribed 2 cm above the bottom of the vial and the number of individuals above the line were recorded at 15, 30, 45, 60, 90, 120, 150, and 180 min after introduction. Following completion of the experiment, the insects were devitalized by freezing at −30° C. for 72 h after which the total number of insects in each vial was recorded. The percentage of B. tabaci above the 2 cm line was calculated for each rate and was used to graph the effect of Compound 1 on whiteflies over time.
For each trial and rate, the proportion of insects above the 2 cm line was analyzed with a generalized linear mixed model (GLMM) for repeated measures with binomial response and logit link function (Stroup, 2012). […]

Solubility in hexane [1] | Polymorphic form after the air milling process (PXRD) [3] | SMILES | Effect on B. tabaci behavior compared with the amorphous oil ([2]; 0.25 g/ha) | Trt Least Squares Means (proportion scale) Mean: proportion of insects above the 2 cm line ([2]; 0.25 g/ha) | Effect on B. tabaci behavior compared with the amorphous oil ([2]; 2.5 g/ha) | Trt Least Squares Means (proportion scale) Mean: proportion of insects above the 2 cm line ([2]; 2.5 g/ha) | Effect on B. tabaci behavior compared with the amorphous oil ([2]; 25 g/ha) | Trt Least Squares Means (proportion scale) Mean: proportion of insects above the 2 cm line ([2]; 25 g/ha) | Trt Least Squares Means (proportion scale) Mean: proportion of insects above the 2 cm line ([4]; 0.25 g/ha) | Trt Least Squares Means (proportion scale) Mean: proportion of insects above the 2 cm line ([4]; 2.5 g/ha) | Trt Least Squares Means (proportion scale) Mean: proportion of insects above the 2 cm line ([4]; 25 g/ha) | Effect on B. tabaci behavior compared with the amorphous oil ([4]; 0.25 g/ha) | Effect on B. tabaci behavior compared with the amorphous oil ([4]; 2.5 g/ha) | Effect on B. tabaci behavior compared with the amorphous oil ([4]; 25 g/ha)
does not readily dissolve | – | CCN(C(=O)CCS(C)(=O)=O)c1sc(-c2cccnc2)nc1Cl [Compound 1, N-[4-chloro-2-(pyridin-3-yl)-1,3-thiazol-5-yl]-N-ethyl-3-(methylsulfonyl) propanamide] | – | – | – | – | – | – | – | – | – | – | – | –
– | unchanged | CCN(C(=O)CCS(C)(=O)=O)c1sc(-c2cccnc2)nc1Cl [Polymorph A, N-[4-chloro-2-(pyridin-3-yl)-1,3-thiazol-5-yl]-N-ethyl-3-(methylsulfonyl) propanamide] | more negatively affected than those exposed to the amorphous oil | 0.342 | significantly affected when compared directly to the amorphous oil | 0.080 | not a difference in the effect | 0.015 | – | – | – | – | – | –
– | – | CCN(C(=O)CCS(C)(=O)=O)c1sc(-c2cccnc2)nc1Cl [amorphous oil, N-[4-chloro-2-(pyridin-3-yl)-1,3-thiazol-5-yl]-N-ethyl-3-(methylsulfonyl) propanamide, reference compound] | – | 0.601 | – | 0.453 | – | 0.029 | 0.295 | 0.326 | 0.167 | – | – | –
– | unchanged | CCN(C(=O)CCS(C)(=O)=O)c1sc(-c2cccnc2)nc1Cl [Polymorph B, N-[4-chloro-2-(pyridin-3-yl)-1,3-thiazol-5-yl]-N-ethyl-3-(methylsulfonyl) propanamide] | more negatively affected than those exposed to the amorphous oil | 0.345 | significantly affected when compared directly to the amorphous oil | 0.079 | not a difference in the effect | 0.013 | 0.502 | 0.156 | 0.115 | not a difference in the effect | more affected than insects exposed to the amorphous oil | no difference in the effect
